Source: US6362369B1, “Phthalic acid diamide derivatives fluorine-containing aniline compounds as starting material, agricultural and horticultural insecticides, and a method for application of the insecticides” (Nihon Nohyaku Co., Ltd., priority 1997, dated 2002)

Key:
Assay type in all cases: in vivo
[1] = tested on: diamondback moth (Plutella xylostella); experiment: Insecticidal effect on diamondback moth (Test Example 1); conditions: diamondback moth; judged by the criterion of Test Example 1
Summary of the method: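 Eggs laid by adult moths on Chinese cabbage seedlings, which were immersed in test solution, air-dried and kept at 25 °C. Hatched insects counted 6 days after immersion and mortality calculated, with effect graded by criterion; triplicate groups of 10 insects.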

[2] = tested on: common cutworm (Spodoptera Litura); experiment: Insecticidal effect on common cutworm (Test Example 2); conditions: 500 ppm, cabbage leaf dip, second-instar larvae of common cutworm, 8 days after inoculation, 25° C.
Summary of the method: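 Second-instar larvae placed in 9 cm Petri dishes with air-dried treated material, held at 25 °C. Dead and live insects counted 8 days after inoculation; mortality calculated and scored against a set criterion. Triplicate groups of 10 insects.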

[3] = tested on: rice leafroller (Cnaphalocrocis medinalis); experiment: Insecticidal effect on rice leafroller (Test Example 3); conditions: 500 ppm, rice lamina dip, third-instar larvae of rice leafroller, 4 days after inoculation, 25° C., humidity 70%
Summary of the method: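 Groups of 10 third-instar larvae, in triplicate, are placed on air-dried lamina resting on wet filter paper. Incubation runs four days at 25° C with 70% humidity before survivors and dead are tallied.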

Structure (SMILES)	Insecticidal effect (Test Example 1), judged from mortality [1]	Insecticidal effect (Test Example 2), judged from mortality [2]	Insecticidal effect (Test Example 3), judged from mortality [3]
CCNC(=O)c1c(I)cccc1C(=O)Nc1ccc(C(F)(F)C(F)(F)F)cc1F [compound 1502]	A (100)	A (100)	A (100)
CCNC(=O)c1c(I)cccc1C(=O)Nc1ccc(C(F)(F)C(F)(F)F)cc1Cl [compound 1503]	A (100)	C (89-80)	A (100)
CC(C)(C)NC(=O)c1c(I)cccc1C(=O)Nc1ccc(C(F)(F)C(F)(F)C(F)(F)F)cc1F [compound 1504]	A (100)	A (100)	A (100)
Cc1cc(C(F)(F)C(F)(F)F)ccc1NC(=O)c1cccc(F)c1C(=O)NC(C)(C)C [compound 1505]	A (100)	A (100)	A (100)
Cc1cc(OC(F)F)ccc1NC(=O)c1cccc(F)c1C(=O)NC(C)(C)C [compound 1506]	A (100)	A (100)	A (100)
CC(C)(C)NC(=O)c1c(F)cccc1C(=O)Nc1ccc(C(F)(F)C(F)(F)F)cc1F [compound 1507]	A (100)	A (100)	A (100)
CC(C)(C)NC(=O)c1c(F)cccc1C(=O)Nc1ccc(C(F)(F)C(F)(F)F)cc1Cl [compound 1508]	A (100)	C (89-80)	A (100)
CC(C)(C)NC(=O)c1c(F)cccc1C(=O)Nc1ccc(C(F)(F)C(F)(F)C(F)(F)F)cc1F [compound 1509]	A (100)	C (89-80)	A (100)
CCCNC(=O)c1c(F)cccc1C(=O)Nc1ccc(C(F)(F)C(F)(F)F)cc1F [compound 1512]	A (100)	A (100)	A (100)
CC(C)NC(=O)c1c(F)cccc1C(=O)Nc1ccc(C(F)(F)C(F)(F)F)cc1Cl [compound 1516]	A (100)	A (100)	A (100)
Cc1cc(-c2ccc(C(F)(F)F)cc2)ccc1NC(=O)c1cccc(I)c1C(=O)NC(C)C [compound 1522]	A (100)	A (100)	A (100)
CCCNC(=O)c1c(I)cccc1C(=O)Nc1ccc(C(F)(F)C(F)(F)C(F)(F)F)cc1F [compound 1524]	A (100)	A (100)	A (100)
CCN(CC)C(=O)c1c(F)cccc1C(=O)Nc1ccc(C(F)(F)C(F)(F)F)cc1C [compound 1525]	A (100)	A (100)	A (100)
CCN(CC)C(=O)c1c(F)cccc1C(=O)Nc1ccc(C(F)(C(F)(F)F)C(F)(F)F)cc1C [compound 1526]	A (100)	A (100)	A (100)
CCN(CC)C(=O)c1c(F)cccc1C(=O)Nc1ccc(C(F)(F)C(F)(F)F)cc1Cl [compound 1531]	A (100)	A (100)	A (100)
CCN(CC)C(=O)c1c(I)cccc1C(=O)Nc1ccc(C(F)(C(F)(F)F)C(F)(F)F)cc1C [compound 1532]	A (100)	A (100)	A (100)
CCN(CC)C(=O)c1c(I)cccc1C(=O)Nc1ccc(OC(F)(F)F)cc1C [compound 1533]	A (100)	A (100)	A (100)
CCN(CC)C(=O)c1c(I)cccc1C(=O)Nc1ccc(OC(F)(F)F)cc1 [compound 1534]	A (100)	A (100)	A (100)

Structure (SMILES)	Insecticidal effect (Test Example 1), judged from mortality [1]	Insecticidal effect (Test Example 2), judged from mortality [2]	Insecticidal effect (Test Example 3), judged from mortality [3]
CCN(CC)C(=O)c1c(Cl)cccc1C(=O)Nc1ccc(C(F)(F)C(F)(F)F)cc1C [compound 1535]	A (100)	A (100)	A (100)
CCN(CC)C(=O)c1c(Cl)cccc1C(=O)Nc1ccc(OC(F)(F)F)cc1C [compound 1536]	A (100)	A (100)	A (100)
CCN(CC)C(=O)c1c(Cl)cccc1C(=O)Nc1ccc(C(F)(C(F)(F)F)C(F)(F)F)cc1C [compound 1537]	A (100)	A (100)	A (100)
CCN(CC)C(=O)c1c(Cl)cccc1C(=O)Nc1ccc(OC(F)F)cc1C [compound 1538]	A (100)	A (100)	A (100)
CCN(CC)C(=O)c1c(Cl)cccc1C(=O)Nc1ccc(OC(F)(F)C(F)F)cc1C [compound 1539]	A (100)	A (100)	A (100)
CCN(CC)C(=O)c1c(Cl)cccc1C(=O)Nc1ccc(C(F)(F)C(F)(F)F)cc1Cl [compound 1540]	A (100)	A (100)	A (100)
CCN(CC)C(=O)c1c(Cl)cccc1C(=O)Nc1ccc(C(F)(F)C(F)(F)F)cc1F [compound 1541]	A (100)	A (100)	A (100)
CCN(CC)C(=O)c1c(Cl)cccc1C(=O)Nc1ccc(Cl)cc1C [compound 1542]	A (100)	D (79-50)	A (100)
CCc1cc(C(F)(F)C(F)(F)F)ccc1NC(=O)c1cccc(Cl)c1C(=O)N(CC)CC [compound 1543]	A (100)	A (100)	A (100)
CCN(CC)C(=O)c1c(Cl)cccc1C(=O)Nc1ccc(OC(F)(F)F)cc1 [compound 1544]	A (100)	A (100)	A (100)
CCN(CC)C(=O)c1c(Cl)cccc1C(=O)Nc1ccc(C(F)(F)F)cc1 [compound 1545]	A (100)	D (79-50)	A (100)
CCN(CC)C(=O)c1c(F)cccc1C(=O)Nc1ccc(Cl)cc1C [compound 1546]	A (100)	C (89-80)	A (100)
CCc1cc(C(F)(F)C(F)(F)F)ccc1NC(=O)c1cccc(F)c1C(=O)N(CC)CC [compound 1549]	A (100)	D (79-50)	A (100)
CCN(CC)C(=O)c1c(C(=O)Nc2ccc(C(F)(F)C(F)(F)F)cc2C)cccc1[N+](=O)[O-] [compound 1550]	A (100)	A (100)	A (100)
CCN(CC)C(=O)c1cccc([N+](=O)[O-])c1C(=O)Nc1ccc(C(F)(F)C(F)(F)F)cc1C [compound 1551]	A (100)	D (79-50)	A (100)
Cc1cc(NC(=O)c2cccc(I)c2C(=O)NC(C)(C)C)ccc1C(F)(F)C(F)(F)F [compound 1552]	A (100)	A (100)	A (100)
CCN(CC)C(=O)c1c(I)cccc1C(=O)Nc1ccc(OC(F)(F)C(F)F)cc1C [compound 1556]	A (100)	A (100)	A (100)
CCN(CC)C(=O)c1c(I)cccc1C(=O)Nc1ccc(Cl)cc1C [compound 1557]	A (100)	A (100)	A (100)
